# Measured values from patent US20120270915A1, “FATTY ACID AMIDE HYDROLASE INHIHIBITORS FOR TREATING PAIN” (priority 2011, published 2012).
# Assays:
# [1] = target: T1, FAAH Rat brain (Rattus norvegicus, UniProt P97612); experiment: FAAH inhibitory activity, rat brain membranes, [14C]-AEA hydrolysis; type: biochemical; conditions: Table 1; rat brain; read-out: FAAH Rat brain IC50
# T1 construct: from tissue; host or cells: rat brain membranes
# T1 sequence (P97612 1-579): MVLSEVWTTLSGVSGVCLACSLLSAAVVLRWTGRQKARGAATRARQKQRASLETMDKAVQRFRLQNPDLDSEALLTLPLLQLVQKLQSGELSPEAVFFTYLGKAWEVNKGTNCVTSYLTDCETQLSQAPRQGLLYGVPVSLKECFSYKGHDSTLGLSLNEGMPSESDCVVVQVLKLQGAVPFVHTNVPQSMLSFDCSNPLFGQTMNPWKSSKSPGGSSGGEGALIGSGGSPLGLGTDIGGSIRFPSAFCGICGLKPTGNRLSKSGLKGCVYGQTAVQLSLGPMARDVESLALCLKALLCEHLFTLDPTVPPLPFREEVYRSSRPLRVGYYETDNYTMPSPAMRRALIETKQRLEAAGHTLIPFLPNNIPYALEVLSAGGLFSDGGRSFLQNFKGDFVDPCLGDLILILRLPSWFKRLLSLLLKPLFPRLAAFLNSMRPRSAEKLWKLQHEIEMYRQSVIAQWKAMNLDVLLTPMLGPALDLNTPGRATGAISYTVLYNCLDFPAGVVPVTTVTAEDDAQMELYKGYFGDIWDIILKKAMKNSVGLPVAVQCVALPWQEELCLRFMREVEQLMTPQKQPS
# Method: The compounds of Examples 12, and 19 are tested for FAAH inhibitory activity as follows:
# Method 1: Membranes obtained from rat brain are incubated with 2 mM [^14C]-AEA, 30 min at 37° C. at pH values ranging from 9.00 to 10.00 in presence and absence of tested compounds in a final volume of […]. Incubation is stopped by extraction with CHCl3/MeOH (1:1) and the aqueous phases containing [^14C]-Ethanolamine produced by [^14C]-AEA hydrolysis are measured.
# [2] = target: FP receptor (Homo sapiens, UniProt P43088); experiment: Prostanoid receptor antagonism (FLIPR), FP; type: cell-based; conditions: Table 1
# FP receptor, sequence (P43088 whole entry): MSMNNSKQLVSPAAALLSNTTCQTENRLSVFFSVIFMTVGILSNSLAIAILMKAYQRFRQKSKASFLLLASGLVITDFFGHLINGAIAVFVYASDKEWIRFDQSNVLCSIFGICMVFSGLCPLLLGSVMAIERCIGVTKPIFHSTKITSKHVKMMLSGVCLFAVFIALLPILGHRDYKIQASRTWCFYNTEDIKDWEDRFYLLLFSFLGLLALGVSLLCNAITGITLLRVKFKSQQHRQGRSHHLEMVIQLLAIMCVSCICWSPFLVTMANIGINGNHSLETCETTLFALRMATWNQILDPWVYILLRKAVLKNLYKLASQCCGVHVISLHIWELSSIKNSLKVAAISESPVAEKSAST
# [3] = target: T2, DP receptor (Homo sapiens, UniProt Q13258); experiment: Prostanoid receptor antagonism (FLIPR), DP; type: cell-based; conditions: Table 1
# T2 sequence (Q13258 1-359): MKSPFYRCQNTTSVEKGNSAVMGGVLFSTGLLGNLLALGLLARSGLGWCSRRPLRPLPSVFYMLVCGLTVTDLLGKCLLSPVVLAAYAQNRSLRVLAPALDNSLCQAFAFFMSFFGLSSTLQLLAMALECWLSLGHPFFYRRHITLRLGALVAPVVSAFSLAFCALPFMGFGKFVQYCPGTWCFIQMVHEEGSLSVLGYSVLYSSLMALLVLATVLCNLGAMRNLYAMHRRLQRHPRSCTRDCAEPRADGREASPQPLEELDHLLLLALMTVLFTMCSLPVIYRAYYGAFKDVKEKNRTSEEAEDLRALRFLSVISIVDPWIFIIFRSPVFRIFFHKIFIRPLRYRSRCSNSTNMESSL
# [4] = target: T3, EP1 receptor (Homo sapiens, UniProt P34995); experiment: Prostanoid receptor antagonism (FLIPR), EP1; type: cell-based; conditions: Table 1
# T3 sequence (P34995 1-402): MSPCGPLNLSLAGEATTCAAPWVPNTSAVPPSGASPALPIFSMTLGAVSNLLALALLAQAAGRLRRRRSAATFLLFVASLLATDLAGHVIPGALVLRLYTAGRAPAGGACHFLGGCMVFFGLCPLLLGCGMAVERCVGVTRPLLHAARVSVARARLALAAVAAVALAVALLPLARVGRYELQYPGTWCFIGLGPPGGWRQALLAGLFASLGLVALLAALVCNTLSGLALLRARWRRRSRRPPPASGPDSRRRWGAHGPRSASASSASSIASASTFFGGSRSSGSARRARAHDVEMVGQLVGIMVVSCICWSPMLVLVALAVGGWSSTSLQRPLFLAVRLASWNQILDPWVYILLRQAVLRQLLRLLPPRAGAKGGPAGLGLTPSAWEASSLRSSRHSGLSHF
# [5] = target: EP2 receptor (Homo sapiens, UniProt P43116); experiment: Prostanoid receptor antagonism (FLIPR), EP2; type: cell-based; conditions: Table 1
# EP2 receptor, sequence (P43116 whole entry): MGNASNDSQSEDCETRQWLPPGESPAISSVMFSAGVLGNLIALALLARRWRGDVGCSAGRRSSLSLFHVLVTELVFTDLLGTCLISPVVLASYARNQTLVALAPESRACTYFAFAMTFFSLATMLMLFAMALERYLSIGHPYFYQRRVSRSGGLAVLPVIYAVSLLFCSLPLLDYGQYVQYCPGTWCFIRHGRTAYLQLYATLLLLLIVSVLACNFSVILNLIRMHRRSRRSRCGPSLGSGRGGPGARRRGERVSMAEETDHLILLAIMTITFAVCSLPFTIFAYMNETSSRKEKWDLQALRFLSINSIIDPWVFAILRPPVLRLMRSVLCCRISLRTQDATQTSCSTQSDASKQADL
# [6] = target: T4, EP3 receptor (Homo sapiens, UniProt P43115); experiment: Prostanoid receptor antagonism (FLIPR), EP3; type: cell-based; conditions: Table 1
# T4 sequence (P43115 1-390): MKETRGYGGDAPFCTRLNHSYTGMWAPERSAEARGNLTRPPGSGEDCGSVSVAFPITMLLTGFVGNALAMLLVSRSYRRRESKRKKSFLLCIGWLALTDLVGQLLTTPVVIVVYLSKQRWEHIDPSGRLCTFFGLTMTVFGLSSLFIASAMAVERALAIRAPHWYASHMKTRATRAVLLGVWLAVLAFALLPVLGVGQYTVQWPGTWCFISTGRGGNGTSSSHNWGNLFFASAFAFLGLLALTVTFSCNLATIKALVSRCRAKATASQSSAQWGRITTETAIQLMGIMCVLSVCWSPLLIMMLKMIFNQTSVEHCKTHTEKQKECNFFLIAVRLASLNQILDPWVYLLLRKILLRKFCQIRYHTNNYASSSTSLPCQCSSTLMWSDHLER
# [7] = target: EP4 receptor (Homo sapiens, UniProt P35408); experiment: Prostanoid receptor antagonism (FLIPR), EP4; type: cell-based; conditions: Table 1
# EP4 receptor, sequence (P35408 whole entry): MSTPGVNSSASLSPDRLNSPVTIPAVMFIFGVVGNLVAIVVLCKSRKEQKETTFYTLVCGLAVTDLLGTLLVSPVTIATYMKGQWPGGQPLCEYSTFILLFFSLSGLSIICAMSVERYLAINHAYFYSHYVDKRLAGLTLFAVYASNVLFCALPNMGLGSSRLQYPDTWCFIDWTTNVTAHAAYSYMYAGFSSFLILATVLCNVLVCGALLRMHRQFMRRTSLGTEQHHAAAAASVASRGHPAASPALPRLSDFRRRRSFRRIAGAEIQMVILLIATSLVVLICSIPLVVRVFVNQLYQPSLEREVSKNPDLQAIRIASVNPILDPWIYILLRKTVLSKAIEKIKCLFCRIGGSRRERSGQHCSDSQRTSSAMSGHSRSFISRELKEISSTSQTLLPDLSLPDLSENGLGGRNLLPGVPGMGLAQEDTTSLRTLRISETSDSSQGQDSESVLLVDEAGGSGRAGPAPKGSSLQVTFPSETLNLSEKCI
# [8] = target: IP receptor (Homo sapiens, UniProt P43119); experiment: Prostanoid receptor antagonism (FLIPR), IP; type: cell-based; conditions: Table 1
# IP receptor, sequence (P43119 whole entry): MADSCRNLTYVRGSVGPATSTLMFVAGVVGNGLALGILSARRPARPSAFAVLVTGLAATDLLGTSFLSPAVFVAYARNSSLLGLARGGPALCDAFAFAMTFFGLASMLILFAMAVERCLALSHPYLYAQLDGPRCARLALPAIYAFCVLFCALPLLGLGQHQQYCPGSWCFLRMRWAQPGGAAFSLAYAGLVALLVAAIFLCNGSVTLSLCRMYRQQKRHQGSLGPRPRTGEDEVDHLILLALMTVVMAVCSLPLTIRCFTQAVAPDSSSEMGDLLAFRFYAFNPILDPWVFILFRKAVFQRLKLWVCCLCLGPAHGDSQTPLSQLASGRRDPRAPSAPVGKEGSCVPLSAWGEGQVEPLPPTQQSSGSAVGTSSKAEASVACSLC
# [9] = target: T5, TP receptor (Homo sapiens, UniProt P21731); experiment: Prostanoid receptor antagonism (FLIPR), TP; type: cell-based; conditions: Table 1
# T5 sequence (P21731 1-343): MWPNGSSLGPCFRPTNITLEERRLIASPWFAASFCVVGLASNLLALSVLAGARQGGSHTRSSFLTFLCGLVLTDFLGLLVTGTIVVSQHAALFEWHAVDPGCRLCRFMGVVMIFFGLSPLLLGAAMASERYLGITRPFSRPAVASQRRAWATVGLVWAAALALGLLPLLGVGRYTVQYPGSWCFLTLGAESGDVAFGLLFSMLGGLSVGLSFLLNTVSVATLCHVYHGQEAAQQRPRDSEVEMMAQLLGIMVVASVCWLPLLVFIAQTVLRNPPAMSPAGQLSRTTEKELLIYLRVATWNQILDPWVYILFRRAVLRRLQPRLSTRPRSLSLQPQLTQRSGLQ
structure (smiles),measurement,setting,value
"CCCCCCCCNC(=O)c1coc([C@@H]2CCCN2Cc2cc(OC)ccc2CCC(=O)NS(=O)(=O)C(F)(F)F)n1 [Example 12f, 2-{1-(5-methoxy-2-(3-oxo-3-{[(trifluoromethyl)sulfonyl]amino]propyl)benzyl]pyrrolidin-2-yl}-N-octyl-1,3-oxazole-4-carboxamide]",IC50,[1],500 nM
same,Kb,[2],380 nM
same,Kb,[3],< 1 nM
same,Kb,[4],60 nM
same,Kb,[5],1100 nM
same,Kb,[6],140 nM
same,Kb,[7],20 nM
same,Kb,[8],400 nM
same,Kb,[9],< 1 nM
